1 molecule from BindingDB's records for doi:10.1124/jpet.104.068320 (Actelion Pharmaceuticals, 2004) can be followed below.

SMILES strings stand for the structures.

For orientation: Ki means a measure of affinity in units of concentration, obtained from inhibition or displacement.

The target in the assay is T1, Urotensin-2 receptor (Rattus norvegicus, UniProt P49684).
T1 sequence (P49684 whole entry): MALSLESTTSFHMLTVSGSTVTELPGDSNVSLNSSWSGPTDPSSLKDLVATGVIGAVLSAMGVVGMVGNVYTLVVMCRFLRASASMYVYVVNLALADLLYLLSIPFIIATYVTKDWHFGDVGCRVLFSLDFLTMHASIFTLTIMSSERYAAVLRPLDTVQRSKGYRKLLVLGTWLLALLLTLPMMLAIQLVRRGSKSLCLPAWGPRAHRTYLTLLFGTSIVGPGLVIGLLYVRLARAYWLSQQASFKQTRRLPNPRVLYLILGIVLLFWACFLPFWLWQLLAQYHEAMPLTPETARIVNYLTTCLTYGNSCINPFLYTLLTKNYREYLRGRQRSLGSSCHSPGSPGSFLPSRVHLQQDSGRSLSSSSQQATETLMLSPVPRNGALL

In the case of `Cc1cc(NC(=O)NCCN2CCC(O)(Cc3ccccc3)CC2)c2ccccc2n1` [ACT-058362], the Ki was determined as 1470 nM.
